Test results reported in article PMC2702281, “HLA-A*0201-restricted CTL epitope of a novel osteosarcoma antigen, papillomavirus binding factor” (Journal of Translational Medicine, 2009).

Key:
[1] = tested on: PBF A2.2-specific CD8+ T cells; assay: LD/MLPC followed by tetramer-based frequency analysis; type: cell-based, human
From the text: Prior to frequency analysis and cytotoxicity assays, PBMC of patients were subjected to mixed lymphocyte peptide culture under limiting dilution conditions (LD/MLPC) according to the method described by Karanikas et al. with some modifications. LD/MLPC aims to seed at most one CTL precursor cell per well and induces proliferation of the precursor cell by subsequent mixed lymphocyte peptide culture. For this purpose, the appropriate number of PBMC and CD8^+ cells per well is considered to be 1 × 10^5–2 × 10^5 [17, 24].
PBMCs were used as a source of responder cells in the initial five subjects (Patients 1 and 2 and three healthy donors) and CD8^+ cells were used in the following three patients (Patients 3–5) [see Additional file 2].
PBMC obtained from peripheral blood samples (50 ml) of Patients 1 and 2 and three healthy donors were suspended in AIM-V (Invitrogen Corp., Carlsbad, CA) supplemented with 1% human serum (HS). These cells were incubated for 60 min at room temperature with peptide PBF A2.2 (50 μg/ml). Peptide-pulsed PBMC were seeded at 2 × 10^5 cells/200 μl/well into round-bottom 96-microwell plates in AIM-V with 10%HS, IL-2 (20 U/ml; a kind gift from Takeda Chemical Industries, Ltd., Osaka Japan) and IL-7 (10 ng/ml; R&D Systems, Minneapolis, Minnesota, USA), and incubated. On day 7, half of the medium was replaced with fresh AIM-V containing IL-2, IL-7 and the same peptides. The cell cultures were maintained by adding fresh AIM-V containing IL-2. On days 14–21, they were subjected to tetramer-based frequency analysis.
PBMC obtained from Patients 3–5 were separated into CD8^+ cells and CD8^- cells using magnetic anti-CD8 microbeads (Miltenyi Biotec, Gladbach, Germany). CD8^- cells were pulsed with the PBF A2.2 peptide for 60 min. Half of the CD8^- cells were cryopreserved at -80°C for the second stimulation. CD8^+ cells (1.0–2.1 × 10^5/well) and irradiated PBF A2.2 peptide-pulsed CD8^- cells (1–5 × 10^5/well) were cocultured in 48-well cell culture plates in 500 μl of AIM-V with 10%HS, IL-2 and IL-7. On day 7, the second stimulation was performed by adding irradiated peptide-pulsed CD8^- cells to each culture well in 500 μl of AIM-V with 10%HS, IL-2 and IL-7. On days 13–23, they were subjected to tetramer-based frequency analysis.
An FITC-conjugated HLA-A*0201/HIV tetramer (here termed the control tetramer) and a PE-conjugated HLA-A*0201/PBF A2.2 tetramer (A2/PBF A2.2 tetramer) were constructed by Medical & Biological Laboratories Co., Ltd. (Tokyo, Japan). PBMCs from patients were stimulated with the PBF A2.2 peptide by using the LD/MLPC procedure as described above. From each microwell containing 200 μl of the microculture pool, 100 μl was transferred to a V-bottom microwell and washed. To the spin-down pellets, the control tetramer and A2/PBF A2.2 tetramer (10 nM in 25 μl of PBS) were added in combination and incubated for 15 min at room temperature. Then a PE-Cy5-conjugated anti-CD8 antibody (eBioscience, San Diego, California, USA) was added (dilution of 1:30 in 25 μl of PBS containing the control tetramer and A2/PBF A2.2 tetramer) and incubated for another 15 min. The cells were washed in PBS twice, fixed with 0.5% formaldehyde, and analyzed by flow cytometry using FACScan and CellQuest software (Becton Dickinson, San Jose, California, USA). CD8^+ living cells were gated and the cells labeled with the A2/PBF A2.2 tetramer were referred to as tetramer-positive cells. Tetramer-positive cells in each well are theoretically derived from a single CTL precursor, regardless of the number (percentage) of tetramer-positive cells. Accordingly, the number of tetramer-positive wells represents the number of CTL precursors. The frequency of anti-PBF A2.2 CTLs was evaluated using the following calculation: (number of tetramer-positive wells)/[(total number of tested wells) × (initial number of CD8+ cells per well)].

HLA-A*0201 molecules = HLA-A*0201 molecules (Homo sapiens, UniProt P04439, D140Y/D185E/D98H/E176V/E277Q/G131W/G231S/I119V/I121R/I166T/I218V/L300P/L318F/N151K/N90K/P208A/P217A/Q86G/Q94H/R138H/R169H/T345S); assay: T2 cell surface HLA class I stabilization assay; type: cell-based; conditions: for HLA-peptide binding affinity (%MFI increase ± SD): peptide 50 μg/ml, T2 cells, anti-HLA-A2 mAb BB7.2 staining, triplicate, mean ± SD
[2] = three tetramer-positive patients with osteosarcoma

Method for T2 cells: CTL-mediated cytolytic activity was measured by a 6 h-^51Cr-release assay [25]. […] T2 cells were treated with or without peptides at the indicated concentrations for 1 h at room temperature after ^51Cr-labeling. […] Target cells were labeled with 100 μCi of ^51Cr for 1 h at 37°C. The labeled target cells were suspended in RPMI without serum and seeded to microwells (2–5 × 10^3 cells/well).
CTL 5A9 and CTL clones were used as the effector cells. The effector cells were transferred to V-bottom microwells, suspended in AIM-V and mixed with the labeled target cells. After a 6 h incubation period at 37°C, the ^51Cr level in the culture supernatant was measured using an automated gamma counter. The percentage of specific cytotoxicity was calculated as follows: the percentage of specific ^51Cr release = 100 × (experimental release – spontaneous release)/(maximum release – spontaneous release).

ALPSFQIPV [Peptide A2.2]
Cytotoxicity of five CTL clones (1B1, 1D7, 1E1, 1F4, 1F7) against peptide-pulsed T2 cells (T2 cells): All five CTL clones lysed PBF A2.2 peptide-pulsed T2 cells | Frequency of CTL precursors calculated as 2/5.4 × 10^6 ([1]; Patient 4, 36 wells at 1.5 × 10^5 CD8+ cells per well, tetramer analysis on day 21, Fig. 2): 3.7 × 10^-7 | Patients in whom A2/PBF A2.2 tetramer-positive T cells were detected ([1]; five HLA-A*0201+ patients with PBF-positive osteosarcoma): three of the five patients | Frequencies of the PBF A2.2-specific CD8+ T cells, average ([1]; three healthy donors): 2 × 10^-7 | Frequencies of the PBF A2.2-specific CD8+ T cells, range ([1]; three healthy donors): 1 × 10^-7 to 3 × 10^-7 | Frequencies of the PBF A2.2-specific CD8+ T cells, average [1, 2]: 2 × 10^-6 | Frequencies of the PBF A2.2-specific CD8+ T cells, range [1, 2]: 2 × 10^-7 to 5 × 10^-6 | %MFI increase in peptide titration experiments (HLA-A*0201 molecules; HLA class I stabilization assay at indicated concentrations, Fig. 1): dose-dependent increases of %MFI | %MFI increase compared among the peptides (HLA-A*0201 molecules; HLA class I stabilization assay, ten PBF-derived peptides): highest %MFI increase among the peptides | HLA-peptide binding affinity (%MFI increase ± SD) (HLA-A*0201 molecules): 74.5 ± 6.6 %MFI increase

FETDPDPFL [Peptide A2.7]
HLA-peptide binding affinity (%MFI increase ± SD) (HLA-A*0201 molecules): 8.2 ± 19.1 %MFI increase

FETDPDPFLL [Peptide A2.6]
HLA-peptide binding affinity (%MFI increase ± SD) (HLA-A*0201 molecules): 22.5 ± 9.6 %MFI increase

FQPGQKVYV [Peptide A2.3]
HLA-peptide binding affinity (%MFI increase ± SD) (HLA-A*0201 molecules): 2.7 ± 9.4 %MFI increase

GLVEQHSWM [Peptide A2.4]
HLA-peptide binding affinity (%MFI increase ± SD) (HLA-A*0201 molecules): 1.8 ± 9.9 %MFI increase

KVLRSIVGI [Peptide A2.10]
HLA-peptide binding affinity (%MFI increase ± SD) (HLA-A*0201 molecules): 4.4 ± 9.9 %MFI increase

MMAAMVLTSL [Peptide A2.5]
HLA-peptide binding affinity (%MFI increase ± SD) (HLA-A*0201 molecules): 10.5 ± 12.0 %MFI increase

SMTGLPLSAL [Peptide A2.8]
HLA-peptide binding affinity (%MFI increase ± SD) (HLA-A*0201 molecules): -1.5 ± 2.5 %MFI increase

WLLEQKLQV [Peptide A2.1]
HLA-peptide binding affinity (%MFI increase ± SD) (HLA-A*0201 molecules): 38.8 ± 15.5 %MFI increase

YQALPSFQI [Peptide A2.9]
HLA-peptide binding affinity (%MFI increase ± SD) (HLA-A*0201 molecules): 10.2 ± 8.2 %MFI increase
